Columns and labels:
LNCaP-SL cells [1] = experiment: Antiproliferative screening in metastatic LNCaP-SL prostate cancer cells; assay type: cell-based, human; conditions: medium containing csEV and compound; inhibitory in both HCT116 and LNCaP-SL
HCT116 cells = experiment: Antiproliferative screening in HCT116 colon cancer cells; assay type: cell-based, human; conditions: medium containing csEV and compound; inhibitory in both HCT116 and LNCaP-SL
LNCaP-SL cells [2] = experiment: csEV-mediated LNCaP-SL transwell migration inhibition; assay type: cell-based, human; conditions: csEV as attractant
YAP [3] = experiment: csEV-induced nuclear localization of YAP in GR-H1993 cells; assay type: cell-based
[4] = system: GR-H1993 (gefitinib-resistant-H1993) cells; experiment: csEV-mediated proliferation of GR-H1993 cells; assay type: cell-based; conditions: csEV treatment
YAP [5] = experiment: Immunocytochemical analysis of YAP expression and nuclear localization; assay type: cell-based; conditions: csEV incubation; KRCT-6j given on top of csEV
LNCaP-SL cells [6] = experiment: LNCaP-SL proliferation with docetaxel in the presence or absence of EV; assay type: cell-based, human; conditions: 50 nM docetaxel; EV-containing normal 10% FBS versus 10% FBS without EVs
GR-H1993 cells = experiment: GR-H1993 xenograft mouse model; assay type: in vivo; conditions: gefitinib 25 mg/kg PO, KRCT-6j 20 mg/kg IP, daily for 28 days, male Athymic BALB/c-nu mice

Cn1cc(-c2cnc(Nc3cc(Cl)cc(Cl)c3)nc2NC2CCCCC2)cn1 [KRCT-6j, N 4 -Cyclohexyl-N 2-(3,5-dichlorophenyl)-5-(1-methyl-1 H -pyrazol-4-yl)pyrimidine-2,4-diamine]
proliferation inhibitory response, LNCaP-SL (LNCaP-SL cells [1]): both cell inhibitory responses
proliferation inhibitory response, HCT116 (HCT116 cells): both cell inhibitory responses
inhibition of csEV-promoted migration of LNCaP-SL cells (LNCaP-SL cells [2]): inhibited by KRCT-6j in a concentration-dependent manner
csEV-induced nuclear localization of YAP (YAP [3]): inhibited
proliferation of GR-H1993 cells [4]: inhibit only the proliferative effect of csEV-mediated GR-H1993
YAP expression and nuclear localization (YAP [5]): decreased again

CC(=O)O[C@@]12CO[C@@H]1C[C@H](O)[C@@]1(C)C(=O)[C@H](O)C3=C(C)[C@@H](OC(=O)[C@H](O)[C@@H](NC(=O)OC(C)(C)C)c4ccccc4)C[C@@](O)([C@@H](OC(=O)c4ccccc4)[C@H]21)C3(C)C [docetaxel]
resistance of LNCaP-SL cells to docetaxel (LNCaP-SL cells [6]): much more resistant to docetaxel

COc1cc2ncnc(Nc3ccc(F)c(Cl)c3)c2cc1OCCCN1CCOCC1 [gefitinib]
tumor growth, GR-H1993 xenograft (GR-H1993 cells): did not affect tumor growth

— patent WO2022059996A1, “Blood circulation micro in-vitro corpuscle-mediated cancer treatment composition” (SEOUL TECHNO HOLDINGS Inc, priority 2020, dated 2022)
